A word on the IC50: it is the midpoint of a concentration-inhibition curve. By Ki is commonly meant a measure of affinity in units of concentration, obtained from inhibition or displacement.

Test [1] has as its target T1, Caspase-1 (Homo sapiens, UniProt P29466).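 Note: Caspase-1 enzyme inhibition assay with a peptide substrate; in other assays of this panel Not Active means under 50% inhibition at 10 µM.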
T1 sequence (P29466 whole entry): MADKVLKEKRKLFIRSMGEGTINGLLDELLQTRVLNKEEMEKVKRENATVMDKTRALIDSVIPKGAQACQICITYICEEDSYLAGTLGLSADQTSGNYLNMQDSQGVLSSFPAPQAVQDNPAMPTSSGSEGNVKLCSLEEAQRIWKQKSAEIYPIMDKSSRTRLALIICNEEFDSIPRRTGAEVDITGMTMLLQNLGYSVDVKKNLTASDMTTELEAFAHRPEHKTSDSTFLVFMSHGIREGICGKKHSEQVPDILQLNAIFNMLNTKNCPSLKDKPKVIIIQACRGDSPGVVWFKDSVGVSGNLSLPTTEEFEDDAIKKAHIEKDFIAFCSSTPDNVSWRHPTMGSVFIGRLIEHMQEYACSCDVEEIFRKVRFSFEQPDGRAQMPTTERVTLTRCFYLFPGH
Also on record: species or system Escherichia coli.

The target in test [2] is Melanocortin receptor 5 (Homo sapiens, UniProt P33032). In kind it is cell membranes, HEK293, Membrane. The following applies: hek293. Note: in other assays of this panel Not Active means under 50% inhibition at 10 µM.
For test [3], the target named is D(3) dopamine receptor (Homo sapiens, UniProt P35462). The test can be described thus: DRUGMATRIX: Dopamine D3 radioligand binding (ligand: [3H] Spiperone). In kind it is cell membranes, CHO, Membrane. The following applies: for Ki: read-out: Ki.
In test [4] the target is Carbonic anhydrase 2 (Homo sapiens, UniProt P00918). Nature of the test: DRUGMATRIX: Carbonic Anhydrase II enzyme inhibition (substrate: 4-Nitrophenyl acetate (4-NPA)). In kind it is tissue-based, Erythrocyte. The note with it: Not Active = under 50% inhibition at 10 µM.
The target in test [5] is Beta-2 adrenergic receptor (Homo sapiens, UniProt P07550). The test can be described thus: DRUGMATRIX: Adrenergic beta2 radioligand binding (ligand: [3H] CGP-12177). The note with it: Not Active = under 50% inhibition at 10 µM. In kind it is cell membranes, CHO, Membrane.
The nature of test [6]: DRUGMATRIX: Atrial Natriuretic Factor (ANF) radioligand binding (ligand: [125I] ANF (rat)). The following applies: Not Active = under 50% inhibition at 10 µM. The format is cell membranes, Cavia porcellus, Dunkin-Hartley, Adrenal gland, Membrane.

Beta-2 adrenergic receptor, sequence (P07550 whole entry): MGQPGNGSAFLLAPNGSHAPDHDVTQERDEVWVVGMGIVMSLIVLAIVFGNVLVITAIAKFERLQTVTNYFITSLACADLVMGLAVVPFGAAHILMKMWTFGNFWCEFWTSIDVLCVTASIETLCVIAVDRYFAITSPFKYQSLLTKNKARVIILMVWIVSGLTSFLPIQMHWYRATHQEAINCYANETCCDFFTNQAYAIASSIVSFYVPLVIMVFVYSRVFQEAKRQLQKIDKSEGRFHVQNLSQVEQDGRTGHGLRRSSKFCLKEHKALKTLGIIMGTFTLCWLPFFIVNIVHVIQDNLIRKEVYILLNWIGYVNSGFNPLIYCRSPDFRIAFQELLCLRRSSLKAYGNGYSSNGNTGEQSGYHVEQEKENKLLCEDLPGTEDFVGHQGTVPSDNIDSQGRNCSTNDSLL
D(3) dopamine receptor, sequence (P35462 whole entry): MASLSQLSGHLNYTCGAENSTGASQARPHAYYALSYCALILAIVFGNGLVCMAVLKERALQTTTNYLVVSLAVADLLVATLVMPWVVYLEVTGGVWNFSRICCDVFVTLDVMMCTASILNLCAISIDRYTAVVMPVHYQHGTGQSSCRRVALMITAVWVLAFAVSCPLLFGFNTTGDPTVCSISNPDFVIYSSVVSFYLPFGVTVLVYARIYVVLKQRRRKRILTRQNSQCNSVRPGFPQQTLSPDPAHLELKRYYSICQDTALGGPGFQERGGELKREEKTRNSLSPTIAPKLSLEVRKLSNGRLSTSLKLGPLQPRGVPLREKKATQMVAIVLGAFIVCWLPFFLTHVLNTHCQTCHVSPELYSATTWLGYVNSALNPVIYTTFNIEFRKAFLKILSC
Melanocortin receptor 5, sequence (P33032 whole entry): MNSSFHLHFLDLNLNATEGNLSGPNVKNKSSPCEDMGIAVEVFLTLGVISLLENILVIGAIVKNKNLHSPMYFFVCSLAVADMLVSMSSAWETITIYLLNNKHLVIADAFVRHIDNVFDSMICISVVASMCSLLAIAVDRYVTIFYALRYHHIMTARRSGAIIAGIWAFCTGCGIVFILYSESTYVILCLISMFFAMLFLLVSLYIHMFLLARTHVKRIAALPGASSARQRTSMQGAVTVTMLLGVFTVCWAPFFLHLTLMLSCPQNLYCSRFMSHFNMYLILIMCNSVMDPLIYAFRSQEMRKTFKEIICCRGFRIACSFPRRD

As for `Cn1c(=O)c2c(ncn2C)n(C)c1=O` [CAFFEINE], the IC50 result in test [1], in test [2], in test [3] (cho), in test [4] (erythrocyte), in test [5] (cho) and in test [6] was “Not Active” throughout. In test [6], the Ki result is on record as “Not Active”.
For `ClC(Cl)(Cl)Cl` [CARBON TETRACHLORIDE], the IC50 entry in test [1], in test [2], in test [3] (cho), in test [4] (erythrocyte), in test [5] (cho) and in test [6] was “Not Active” each time. Further, the Ki result in test [6] was “Not Active”.
On to `CO/N=C(\C(=O)N[C@@H]1C(=O)N2C(C(=O)O)=C(COC(C)=O)CS[C@H]12)c1csc(N)n1` [CEFOTAXIME], for which the IC50 entry in test [1], in test [2], in test [3] (cho), in test [4] (erythrocyte), in test [5] (cho) and in test [6] was “Not Active” each time. Moreover, the Ki result in test [6] was “Not Active”.
Take `CNC1=Nc2ccc(Cl)cc2C(c2ccccc2)=[N+]([O-])C1` [CHLORDIAZEPOXIDE]: the IC50 entry in test [1], in test [2], in test [3] (cho), in test [4] (erythrocyte), in test [5] (cho) and in test [6] was “Not Active” in each case. The Ki result in test [6] is “Not Active”.
Turning to `Cc1cc(O)cc(C)c1Cl` [CHLOROXYLENOL], the IC50 result in test [1], in test [2], in test [3] (cho), in test [4] (erythrocyte), in test [5] (cho) and in test [6] was “Not Active” in each case. In addition, in test [6], the Ki entry is given as “Not Active”.
As to `CCCNC(=O)NS(=O)(=O)c1ccc(Cl)cc1` [CHLORPROPAMIDE], the IC50 result in test [1], in test [2], in test [3] (cho), in test [4] (erythrocyte), in test [5] (cho) and in test [6] was “Not Active” throughout. Besides, in test [6], the Ki result is recorded as “Not Active”.
On to `NS(=O)(=O)c1cc(C2(O)NC(=O)c3ccccc32)ccc1Cl` (stereo not drawn) [CHLORTHALIDONE], for which the IC50 entry in test [1] is “Not Active”; in test [2], “Not Active”; in test [3] (cho) it was “Not Active”; in test [4] (read-out: IC50), 677 nM; in test [5] (cho) it was “Not Active”; in test [6], “Not Active”. Further, in test [6], the Ki result is “Not Active”.
As to `O=C(O)CC(O)(CC(=O)O)C(=O)O` [CITRIC ACID], the IC50 result in test [1], in test [2], in test [3] (cho), in test [4] (erythrocyte), in test [5] (cho) and in test [6] was “Not Active” throughout. Also, the Ki result in test [6] was “Not Active”.
Consider `CC(C)NCC(O)c1ccccc1Cl` (stereo not drawn) [CLORPRENALINE], for which the IC50 entry is “Not Active” in test [1]; “Not Active” in test [2]; “Not Active” in test [3] (cho); “Not Active” in test [4] (erythrocyte); 1990 nM in test [5] (read-out: IC50); “Not Active” in test [6]. Moreover, the Ki in test [5] (read-out: Ki) is 1370 nM; in test [6], “Not Active”.
With `CN1CCN(C(c2ccccc2)c2ccccc2)CC1` [CYCLIZINE], the IC50 result was “Not Active” in test [1]; “Not Active” in test [2]; 2990 nM in test [3] (read-out: IC50); “Not Active” in test [4] (erythrocyte); “Not Active” in test [5] (cho); “Not Active” in test [6]. The results for the Ki in test [3] and in test [6] were 1020 nM and “Not Active”, respectively.
As for `CN1C[C@@H]2C[C@H]1CN2c1cc2c(cc1F)c(=O)c(C(=O)O)cn2C1CC1` [DANOFLOXACIN], the IC50 entry in test [1], in test [2], in test [3] (cho), in test [4] (erythrocyte), in test [5] (cho) and in test [6] was “Not Active” in each case. In addition, the Ki result in test [6] was “Not Active”.
For the compound `COc1cccc2c1C(=O)c1c(O)c3c(c(O)c1C2=O)C[C@@](O)(C(C)=O)C[C@@H]3O[C@H]1C[C@H](N)[C@H](O)[C@H](C)O1` [DAUNORUBICIN], the IC50 result in test [1], in test [2], in test [3] (cho), in test [4] (erythrocyte), in test [5] (cho) and in test [6] was “Not Active” in each case. In addition, the Ki entry in test [6] is reported as “Not Active”.
As to `O=C(O)c1cc(-c2ccc(F)cc2F)ccc1O` [DIFLUNISAL], the IC50 entry in test [1], in test [2], in test [3] (cho), in test [4] (erythrocyte), in test [5] (cho) and in test [6] was “Not Active” each time. Further, the Ki entry in test [6] is reported as “Not Active”.
As for `C[S+](C)[O-]` [DIMETHYL SULFOXIDE], the IC50 entry in test [1], in test [2], in test [3] (cho), in test [4] (erythrocyte), in test [5] (cho) and in test [6] was “Not Active” throughout. Moreover, the Ki entry in test [6] is on record as “Not Active”.
`CC1=NN(c2ccccc2)C(=O)C1` [EDARAVONE]: the IC50 result in test [1], in test [2], in test [3] (cho), in test [4] (erythrocyte), in test [5] (cho) and in test [6] was “Not Active” in each case. Further, the Ki entry in test [6] is recorded as “Not Active”.
As to `CC(C)C[C@H]1C(=O)N2CCC[C@H]2[C@]2(O)O[C@](NC(=O)[C@@H]3C=C4c5cccc6[nH]cc(c56)C[C@H]4N(C)C3)(C(C)C)C(=O)N12` [ERGOCRYPTINE], the concentration for half-maximal inhibition (IC50) result was “Not Active” in test [1]; “Not Active” in test [2]; 0.589 nM in test [3] (read-out: IC50); “Not Active” in test [4] (erythrocyte); “Not Active” in test [5] (cho); “Not Active” in test [6]. Moreover, the Ki in test [3] is 0.2 nM; in test [6] it was “Not Active”.
For `C[C@]12CC[C@@H]3c4ccc(O)cc4CC[C@H]3[C@@H]1C[C@@H](O)[C@@H]2O` [ESTRIOL], the IC50 entry in test [1], in test [2], in test [3] (cho), in test [4] (erythrocyte), in test [5] (cho) and in test [6] was “Not Active” throughout. Also, the Ki entry in test [6] is on record as “Not Active”.
As for `C#C[C@]1(O)CC[C@H]2[C@@H]3CCC4=CC(=O)CC[C@]4(C)[C@H]3CC[C@@]21C` [ETHISTERONE], the half-inhibitory concentration (IC50) entry in test [1], in test [2], in test [3] (cho), in test [4] (erythrocyte), in test [5] (cho) and in test [6] was “Not Active” throughout. Further, in test [6], the Ki result is reported as “Not Active”.
For the compound `CC(O)(P(=O)(O)O)P(=O)(O)O` [ETIDRONIC ACID], the IC50 entry in test [1], in test [2], in test [3] (cho), in test [4] (erythrocyte), in test [5] (cho) and in test [6] was “Not Active” each time. Besides, the Ki entry in test [6] is listed as “Not Active”.
As for `CC(C)(C(=O)O)c1ccc(C(O)CCCN2CCC(C(O)(c3ccccc3)c3ccccc3)CC2)cc1` (stereo not drawn) [FEXOFENADINE], the IC50 entry in test [1], in test [2], in test [3] (cho), in test [4] (erythrocyte), in test [5] (cho) and in test [6] was “Not Active” each time. The Ki entry in test [6] is reported as “Not Active”.

Values taken from ChEMBL document CHEMBL1909046, “DrugMatrix in vitro pharmacology data”.
